Some test systems named below: OVCAR-4; SK-OV-3; TK-10; SK-MEL-28; HOP-92; SNB-19; NCI-H522; UO-31; M14; UACC-62; RXF 393; A549; SF-268; HT-29; NCI-H460; SK-MEL-5; IGROV-1.
Common to all, as to experiment: DTP human tumour cell line panel, 48 h

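Tested at 5 concentrations; 48 h exposure; 96-well plates; endpoints linearly interpolated, else capped at highest concentration. The concentration for 50% growth inhibition is given as GI50.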 Calls of active or inactive are those of the source. No stated cut-off is given here; in the data, active = GI50 up to about 1.1 µM and inactive = higher.

One may read the GI50 as the concentration at which growth is held to half of that of the control. For the molecule `Cc1ccc(C)c(NC(=O)CCC(=O)CC(=O)C(C)(C)C)c1`, the GI50 in the experiment on OVCAR-4, with SK-OV-3, in the experiment on TK-10, in the experiment on SK-MEL-28, with HOP-92 and in the experiment with SNB-19 was > 100 µM (inactive) in each case. In addition, the GI50 in the experiment with NCI-H522, with UO-31, in the experiment on M14, in the experiment with UACC-62, with RXF 393 and with A549 was > 100 µM (inactive) in each case. The GI50 in the experiment on SF-268, in the experiment with HT-29, in the experiment on NCI-H460, with SK-MEL-5 and in the experiment with IGROV-1 was > 100 µM (inactive) in each case.

Regarding `CN(O)C(=O)Cc1ccccc1`, the GI50 in the experiment with OVCAR-4, in the experiment on SK-OV-3, with TK-10, in the experiment on SK-MEL-28, with HOP-92 and in the experiment with SNB-19 was > 100 µM (inactive) each time. Further, the GI50 in the experiment with NCI-H522, in the experiment on UO-31, with M14, in the experiment with UACC-62, in the experiment with RXF 393 and with A549 was > 100 µM (inactive) in each case. Further, the GI50 with SF-268, with HT-29, in the experiment on NCI-H460, with SK-MEL-5 and with IGROV-1 was > 100 µM (inactive) throughout.

In the case of `CCOC(=O)c1nc(C)oc1C(F)(F)F`, the GI50 in the experiment on OVCAR-4, in the experiment with SK-OV-3, in the experiment with TK-10, in the experiment on SK-MEL-28, in the experiment with HOP-92 and in the experiment on SNB-19 was > 100 µM (inactive) each time. Further, the GI50 in the experiment on NCI-H522, with UO-31, in the experiment with M14, in the experiment with UACC-62, in the experiment on RXF 393 and with A549 was > 100 µM (inactive) throughout. The GI50 in the experiment on SF-268, with HT-29, in the experiment with NCI-H460 and in the experiment on IGROV-1 was > 100 µM (inactive) each time.

For the molecule `CC(O)C(N/C=C1/N=C(c2ccccc2)OC1=O)C(=O)O` (stereo unspecified), the GI50 in the experiment with OVCAR-4, with SK-OV-3, in the experiment on TK-10, in the experiment with SK-MEL-28, with HOP-92 and in the experiment with SNB-19 was > 100 µM (inactive) in each case. Also, the GI50 in the experiment with NCI-H522, in the experiment with UO-31, in the experiment with M14, in the experiment with UACC-62, with RXF 393 and in the experiment on A549 was > 100 µM (inactive) throughout. Besides, the GI50 with SF-268, with HT-29, in the experiment on NCI-H460, in the experiment on SK-MEL-5 and in the experiment with IGROV-1 was > 100 µM (inactive) throughout.

On to `O=[N+]([O-])c1cccnc1S(=O)(=O)c1ccccc1`, for which the GI50 in the experiment with OVCAR-4 is 6.47 µM (inactive); in the experiment on SK-OV-3, 20.5 µM (inactive); in the experiment with TK-10, 10 µM (inactive); in the experiment on SK-MEL-28, 20 µM (inactive); in the experiment on HOP-92, 1.97 µM (inactive); with SNB-19 it was 19.8 µM (inactive). In addition, the GI50 was 1.46 µM (inactive) in the experiment on NCI-H522; 6.52 µM (inactive) in the experiment on UO-31; 9.4 µM (inactive) in the experiment on M14; 11.6 µM (inactive) in the experiment with UACC-62; 1.99 µM (inactive) in the experiment with RXF 393; 21.8 µM (inactive) with A549. Moreover, the GI50 in the experiment with SF-268 was 10.5 µM (inactive); in the experiment with HT-29 it was 6.41 µM (inactive); in the experiment with NCI-H460, 13.9 µM (inactive); in the experiment with SK-MEL-5, 18.1 µM (inactive); in the experiment with IGROV-1, 8.13 µM (inactive).

Take `O=C1OC(c2ccccc2)=N/C1=C\c1ccc2ccccc2c1`: the GI50 with OVCAR-4, with SK-OV-3, with TK-10, in the experiment on SK-MEL-28, in the experiment on HOP-92 and with SNB-19 was > 100 µM (inactive) each time. For the same molecule, the GI50 with NCI-H522, in the experiment with UO-31, with M14, with UACC-62, with RXF 393 and in the experiment with A549 was > 100 µM (inactive) each time. Besides, the GI50 in the experiment on SF-268, in the experiment with HT-29, in the experiment with NCI-H460, in the experiment with SK-MEL-5 and with IGROV-1 was > 100 µM (inactive) throughout.

Turning to `OC(CCl)CN1CC[N+]2(CC1)CC[N+]1(CCN(CC(O)CCl)CC1)CC2` (stereo unspecified) [PROSPIDIUM CHLORIDE], the GI50 with OVCAR-4, in the experiment with SK-OV-3, in the experiment on TK-10, in the experiment on SK-MEL-28, in the experiment with HOP-92 and in the experiment on SNB-19 was > 50 µM (inactive) throughout. The GI50 with NCI-H522, in the experiment on UO-31, with M14, in the experiment with RXF 393, in the experiment on A549 and with SF-268 was > 50 µM (inactive) each time. The GI50 with HT-29, in the experiment on NCI-H460, in the experiment with SK-MEL-5 and with IGROV-1 was > 50 µM (inactive) in each case.

In the case of `C/C(=C\CNc1ncnc2c1ncn2C1CCCCO1)COP(=O)(O)O` (stereo unspecified), the GI50 in the experiment on OVCAR-4, in the experiment with SK-OV-3, in the experiment with TK-10, in the experiment with SK-MEL-28, in the experiment on HOP-92 and in the experiment with SNB-19 was > 100 µM (inactive) each time. For the same molecule, the GI50 with NCI-H522, in the experiment on UO-31, in the experiment with M14, with UACC-62, in the experiment on RXF 393 and in the experiment on A549 was > 100 µM (inactive) in each case. The GI50 in the experiment on SF-268, in the experiment with HT-29, in the experiment with NCI-H460, in the experiment with SK-MEL-5 and in the experiment on IGROV-1 was > 100 µM (inactive) in each case.

Regarding `O=S(=O)(C1=CC(S(=O)(=O)c2ccccc2)CN(Cc2ccccc2)C1c1cccc2ccccc12)c1ccccc1` (stereo unspecified), the GI50 is > 69 µM (inactive) in the experiment on OVCAR-4; > 69 µM (inactive) with SK-OV-3; > 69 µM (inactive) in the experiment on TK-10; > 69 µM (inactive) with SK-MEL-28; 6.3 µM (inactive) in the experiment with HOP-92; > 69 µM (inactive) with SNB-19. Besides, the GI50 in the experiment on NCI-H522 is > 69 µM (inactive); in the experiment on UO-31 it was > 69 µM (inactive); in the experiment with M14 it was > 69 µM (inactive); in the experiment with UACC-62 it was > 69 µM (inactive); with RXF 393 it was 25.4 µM (inactive); in the experiment with A549, > 69 µM (inactive). The GI50 in the experiment on SF-268, in the experiment on HT-29, in the experiment with NCI-H460, with SK-MEL-5 and in the experiment with IGROV-1 was > 69 µM (inactive) throughout.

Consider `O=C(Nc1ccn(CCI)c(=O)n1)c1ccccc1`, for which the GI50 in the experiment with OVCAR-4, in the experiment with SK-OV-3, in the experiment on TK-10, in the experiment with SK-MEL-28, in the experiment with HOP-92 and in the experiment with NCI-H522 was > 100 µM (inactive) in each case. Besides, the GI50 with UO-31, in the experiment on M14, with UACC-62, in the experiment on RXF 393, in the experiment with A549 and in the experiment with SF-268 was > 100 µM (inactive) throughout. Moreover, the GI50 in the experiment with HT-29, in the experiment with NCI-H460, in the experiment on SK-MEL-5 and with IGROV-1 was > 100 µM (inactive) each time.

In the case of `C[n+]1c2ccccc2cc2c(CNC(CCCNC(=N)N)C(=O)O)cccc21` (stereo unspecified), the GI50 in the experiment on OVCAR-4 was 11.4 µM (inactive); in the experiment on SK-OV-3 it was 1.99 µM (inactive); in the experiment with TK-10, 0.67 µM (active); with SK-MEL-28, 1.34 µM (inactive); in the experiment on HOP-92, 1.3 µM (inactive); in the experiment with SNB-19 it was 2.37 µM (inactive). Moreover, the GI50 was 1.4 µM (inactive) with NCI-H522; 0.959 µM (active) with UO-31; 3.31 µM (inactive) with M14; 0.643 µM (active) in the experiment with UACC-62; 0.0458 µM (active) in the experiment on RXF 393; 3.05 µM (inactive) in the experiment with A549. Also, the GI50 in the experiment on SF-268 is 0.244 µM (active); with HT-29, 0.303 µM (active); in the experiment on NCI-H460, 1.9 µM (inactive); with SK-MEL-5, 2.21 µM (inactive); with IGROV-1 it was 7.4 µM (inactive).

As to `O=C(NCC(=O)N1CCOC1=O)OCc1ccccc1`, the GI50 with OVCAR-4, with SK-OV-3, in the experiment on TK-10, in the experiment with SK-MEL-28, in the experiment on HOP-92 and with SNB-19 was > 100 µM (inactive) in each case. The GI50 in the experiment with NCI-H522, with UO-31, with M14, in the experiment on UACC-62, in the experiment on RXF 393 and in the experiment with A549 was > 100 µM (inactive) throughout. In addition, the GI50 with SF-268, with HT-29, with NCI-H460, in the experiment with SK-MEL-5 and in the experiment with IGROV-1 was > 100 µM (inactive) throughout.

(Values after ChEMBL document CHEMBL1201862, “PubChem BioAssay data set” (2004).)
